These results are taken from patent US20120128665A1, “PRESELECTION OF SUBJECTS FOR THERAPEUTIC TREATMENT BASED ON HYPOXIC STATUS” (SYNTA PHARMACEUTICALS CORP., priority 2010, published 2012).

Read-outs that look alike come from different tables or passages of the source.

Data set [1] concerns breast cancer. As to conditions: xenograft models; cited from earlier work.
Data set [2] deals with advanced pancreatic cancer. As to conditions: Phase II, combination with Gemcitabine; cited from earlier work.
Data set [3] has as its system advanced pancreatic cancer. The following applies: Phase III, combination with Gemcitabine; cited from earlier work.
Data set [4] deals with previously treated metastatic renal cell carcinoma (mRCC). As to conditions: Phase III, 2010; cited from earlier work.
The test system of data set [5] is HCT116 tumors vs 786O tumors. The experiment in a line: response of hypoxic vs non-hypoxic tumors. The data set is classed as in vivo, nude mice. The following applies: doses as in the 3rd table.
The test system of data set [6] is wide range of cancer types. As to conditions: cited from earlier work.
Data set [7] has as its system solid tumors. The following applies: once-weekly dosing; cited from earlier work.
The subject of data set [8] is cancer of the parotid gland. As to conditions: one patient; ganetespib 150 mg/m^2 with docetaxel 75 mg/m^2; cited from earlier work.
Data set [9] concerns advanced relapsed/refractory NSCLC. As to conditions: cited from earlier work.
Data set [10] relates to HCT116 human colon carcinoma xenograft. The data set can be described thus: HCT116 xenograft model (hypoxic tumor). The data set is classed as in vivo, nude mice. On the procedure: (§1) Human tumor cell lines HCT116 (ATCC #CRL-247; Schroy PC, et al. Cancer 76:201-209, 1995) and 786-O (ATCC #CRL-1932; Williams RD, et al. In Vitro 12:623-627, 1976), were obtained from the American Type Culture Collection (Manassus, Va., USA) were cultured using routine methods until a sufficient number of cells were obtained for implantation. Studies were conducted on animals between 7 and 12 weeks of age at implantation. To implant HCT116 tumor cells into nude mice, the cells were trypsinized, washed in PBS and resuspended at a concentration of 75×10^6 cells/ml in McCoy's modified medium with 50% of BD Matrigel® Basement Membrane Matrix (BD Biosciences®, Bedford, Mass., USA). To implant 786-O tumor cells into nude mice, the cells were trypsinized as above, washed in PBS and resuspended at a concentration of 75×10^6 cells/ml in RPMI 1640 medium with 50% of BD Matrigel® Basement Membrane Matrix. Using a 27 gauge needle and 1 cc syringe, 0.1 ml of the cell suspension was injected into the corpus adiposum of nude mice. The corpus adiposum is a fat body located in the ventral abdominal vicera in the right quadrant of the abdomen at the juncture of the os coxae (pelvic bone) and the os femoris (femur). The location permits palpation and measurement of the tumors using external calipers. Tumor volumes (V) were calculated by caliper measurement of the width (W), length (L) and thickness (T) of tumors using the following formula: V=0.5236×(L×W×T). Animals were randomized into treatment groups so that the average tumor volumes of each group were similar at the start of dosing.
(§2) A tumor model in which the tumors have relatively high and low levels of LDH5, indicating high and low levels of hypoxia, using human tumor cell lines HCT116 and 786-O was established as set forth in the previous example.
(§3) As above, HCT116 and 786-O cells were cultured and implanted into nude mice using the methods in the previous example. Tumor growth was measured using calipers. Prior to treatment with the various agents, tumors were permitted to develop in vivo until they reached approximately 150 mm^3 in volume, which typically required 2-3 weeks following implantation. Animals were randomized into treatment groups so that the average tumor volumes of each group were similar at the start of dosing.
(§4) Tumor volume was monitored throughout the course of the study, until up to about 40 days from the date of tumor implantation. The exact number of days of the study depended on a number of factors including, for example, the number of days from implantation for the tumors to reach the desired volume.

Data set [11] relates to 786-O human renal carcinoma xenograft. The experiment in a line: 786-O xenograft model (non-hypoxic tumor). Type of data set: in vivo, nude mice. On the procedure:
as §1, §2, §3, §4

Data set [12] deals with metastatic colorectal cancer. The following applies: cited from earlier work.
The test system of data set [13] is metastatic colorectal cancer. As to conditions: cited from earlier work. The source holds these as a separate data set.
The test system of data set [14] is metastatic pancreatic cancer. As to conditions: cited from earlier work.
The test system of data set [15] is advanced non-squamous, non-small cell lung cancer (NSCLC). As to conditions: bevacizumab arm = with paclitaxel and carboplatin; comparator chemotherapy alone; statistically significant; cited from earlier work.
For data set [16], the system named is glioblastoma. As to conditions: 85 patients treated with bevacizumab alone; cited from earlier work.
The test system of data set [17] is glioblastoma. The following applies: 56 patients treated with bevacizumab alone; cited from earlier work.
Data set [18] has as its system renal cancer. As to conditions: cited from earlier work.
Data set [19] has as its system HER2-negative, metastatic breast cancer. The following applies: added to standard chemotherapy; cited from earlier work.

Turning to `CNC(=O)c1ccccc1Sc1ccc2c(/C=C/c3ccccn3)n[nH]c2c1` [Axitinib, N-Methyl-2-[[3-[(E)-2-pyridin-2-ylethenyl]-1H-indazol-6-yl]sulfanyl]benzamide], in data set [1], the “growth of breast cancer” value is “significantly inhibit growth”. For the same molecule, in data set [2], the response entry is “good response”. The “survival rates over Gemcitabine alone” value in data set [3] is recorded as “no evidence of improved survival rates”. Moreover, in data set [4], the “progression-free survival compared to sorafenib” value is “significantly extended progression-free survival”.

On to `CC(C)c1cc(-c2nnc(O)n2-c2ccc3c(ccn3C)c2)c(O)cc1O` [ganetespib], for which the “effectiveness at slowing tumor growth in tumors with high levels of hypoxia (HCT116) compared with low levels (786O)” value in [5] is “not found to work better”. Besides, in data set [6], the “activity against cancers resistant to imatinib, sunitinib, erlotinib and dasatinib” value is “potent activity”. Further, the “activity against a wide range of cancer types” value in data set [6] (lung, prostate, colon, breast, gastric, pancreatic, GIST, melanoma, AML, CML, lymphomas, multiple myeloma, in vitro and in vivo models) was “potent activity”. For the same molecule, the “evaluable patients with disease control” value in [7] is on record as “more than half”. The “outcome in several patients who had progressed or failed multiple prior therapies” value in data set [7] is “substantial tumor shrinkage and prolonged disease control”. Besides, the “shrinkage of target tumor lesions, confirmed partial response” value in data set [8] is on record as “over 50%”. Besides, the “patients with durable, objective responses” value in data set [9] (ALK rearrangement, four patients) is reported as 50%. Further, the “patients who received ganetespib for 16 weeks or more” value in data set [9] (ALK rearrangement, seven of eight) is reported as 88%. Also, the “patients with tumor shrinkage” value in data set [9] (ALK rearrangement, six of eight patients) is listed as 75%; in [9] (tumors with a KRAS mutation), 62%. In addition, in [9] (broad population), the disease control rate was 54%. In addition, the “hepatic and ocular toxicities” value in data set [9] (compared with other Hsp90 inhibitors) is given as “did not have the serious hepatic or common ocular toxicities”. Moreover, in data set [9] (in vivo), the tolerability entry is listed as “well tolerated”.

For “bevacizumab: recombinant humanized monoclonal IgG1 antibody that binds to and inhibits human vascular endothelial growth factor (VEGF)”, the “tumor growth as compared to control” value in data set [10] (bevacizumab higher dose (4 mg/kg) i.p., p=0.0424) was “reduced the growth of the tumor”; in data set [10] (bevacizumab lower concentration (1 mg/kg) i.p., p=0.1274), “small trend to decreased tumor growth”. Besides, the “tumor burden as compared to control” value was “greatest tumor burden” in data set [11] (bevacizumab higher dose (4 mg/kg) i.p., p=0.011) and “no significant difference in tumor burden” in data set [11] (low dose bevacizumab (1 mg/kg) i.p., p=0.437). In addition, in data set [5], the “effectiveness at slowing tumor growth in tumors with high levels of hypoxia (HCT116) compared with low levels (786O)” value is given as “more effective”. Besides, the median survival was 16.6 months in [12] (bevacizumab arm = bevacizumab plus 5-FU/Leucovorin, comparator 5-FU/Leucovorin alone, not statistically significant); 17.9 months in [13] (bevacizumab and 5-FU/Leucovorin (n=249) vs IFL regimen alone). In data set [12] (bevacizumab plus 5-FU/Leucovorin vs 5-FU/Leucovorin alone), the “improvement in median survival” value is listed as 29%. For the same molecule, the progression-free survival in [13] (bevacizumab plus 5-FU/Leucovorin vs IFL regimen alone) is 8.7 months. Also, the “progression free survival HR” value in data set [14] (bevacizumab vs placebo arm, both with gemcitabine and erlotinib, 95% CI 0.61 to 0.96, P=0.0002) is 0.73. The median overall survival in [14] (bevacizumab, gemcitabine and erlotinib, 306 patients) was 7.1 months; in data set [15] it was 12.5 months. Moreover, the “patients whose tumors shrank” value in data set [16] is listed as 26%. For the same molecule, the patients who responded in data set [17] is on record as 20%. For the same molecule, the “patients with decreased tumor size” value in data set [18] (bevacizumab arm = with interferon-alpha, comparator interferon-alpha alone) is on record as 30%. In addition, in [18] (bevacizumab with interferon-alpha), the “increase in progression-free survival time compared to interferon-alpha alone” value is listed as “about 5 months”. In [19], the “keeping cancer from worsening” value is “does not keep cancer from worsening for a long enough time to be clinically meaningful”.
